{
  "source": "patent US8952024B2",
  "about": "“Herbicidal pyrimidone derivatives” (E I du Pont de Nemours and Company, priority 2009, dated 2015)",
  "assay_type_in_all_cases": "in vivo",
  "key": {"[1]": {"tested_on": "giant foxtail (Setaria faberii)", "assay": "Test A pre-/postemergence plant response", "how_it_was_run": "(§1)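 Visually rated 0–100 injury (100 = complete control) versus untreated plants, ~10 days in greenhouse. Application pre- (soil spray, loam/sand) and postemergence (2–10 cm, 1–2 leaf stage), same timepoint.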"}, "[2]": {"tested_on": "velvetleaf (Abutilon theophrasti)", "assay": "Test A pre-/postemergence plant response", "how_it_was_run": "as §1"}, "[3]": {"tested_on": "pigweed (Amaranthus retroflexus)", "assay": "Test A pre-/postemergence plant response", "how_it_was_run": "as §1"}, "[4]": {"tested_on": "large crabgrass (Digitaria sanguinalis)", "assay": "Test A pre-/postemergence plant response", "how_it_was_run": "as §1"}, "[5]": {"tested_on": "barnyardgrass (Echinochloa crus-galli)", "assay": "Test A pre-/postemergence plant response", "how_it_was_run": "as §1"}, "[6]": {"tested_on": "morningglory (Ipomoea spp.)", "assay": "Test A pre-/postemergence plant response", "how_it_was_run": "as §1"}, "[7]": {"tested_on": "wheat (Triticum aestivum)", "assay": "Test A pre-/postemergence plant response", "how_it_was_run": "as §1"}, "[8]": {"tested_on": "corn (Zea mays)", "assay": "Test A pre-/postemergence plant response", "how_it_was_run": "as §1"}, "[9]": {"tested_on": "bermudagrass (Cynodon dactylon)", "assay": "Test B pre-/postemergence plant response", "conditions": "for Plant response rating, Bermudagrass: Postemergence", "excerpt": "(§2) Seeds of plant species selected from blackgrass (Alopecurus myosuroides), downy bromegrass (Bromus tectorum), green foxtail (Setaria viridis), Italian ryegrass (Lolium multiflorum), wheat (Triticum aestivum), wild oat (Avena fatua), deadnettle (henbit deadnettle, Lamium amplexicaule), galium (catchweed bedstraw, Galium aparine), bermudagrass (Cynodon dactylon), Surinam grass (Brachiaria decumbens), cocklebur (Xanthium strumarium), corn (Zea mays), large crabgrass (Digitaria sanguinalis), woolly cupgrass (Eriochloa villosa), giant foxtail (Setaria faberii), goosegrass (Eleusine indica), johnsongrass (Sorghum halepense), kochia (Kochia scoparia), lambsquarters (Chenopodium album), morningglory (Ipomoea coccinea), nightshade (eastern black nightshade, Solanum ptycanthum), yellow nutsedge (Cyperus esculentus), pigweed (Amaranthus retroflexus), ragweed (common ragweed, Ambrosia elatior), Russian thistle (Salsola kali), soybean (Glycine max), sunflower (common oilseed sunflower, Helianthus annuus) and velvetleaf (Abutilon theophrasti) were planted into a blend of loam soil and sand and treated preemergence with test compounds formulated in a non-phytotoxic solvent mixture which included a surfactant.\n(§3) At the same time, plants selected from these crop and weed species and also winter barley (Hordeum vulgare), canarygrass (Phalaris minor), chickweed (Stellaria media) and windgrass (Apera spica-venti) were planted in pots containing Redi-Earth® planting medium (Scotts Company, 14111 Scottslawn Road, Marysville, Ohio 43041) comprising spaghnum peat moss, vermiculite, wetting agent and starter nutrients and treated with postemergence applications of some of the test chemicals formulated in the same manner. Plants ranged in height from 2 to 18 cm (1- to 4-leaf stage) for postemergence treatments.\n(§4) Treated plants and controls were maintained in a greenhouse for 13 to 15 days, after which time all treated plants were visually evaluated and compared to controls. Plant response ratings, summarized in Table B, are based on a scale of 0 to 100 where 0 is no effect and 100 is complete control. A dash (-) response means no test result."}, "[10]": {"tested_on": "wheat (Triticum aestivum)", "assay": "Test B pre-/postemergence plant response", "conditions": "for Plant response rating, Wheat: Postemergence", "excerpt": "as §2, §3, §4"}, "[11]": {"tested_on": "cocklebur (Xanthium strumarium)", "assay": "Test B pre-/postemergence plant response", "conditions": "for Plant response rating, Cocklebur: Postemergence", "excerpt": "as §2, §3, §4"}, "[12]": {"conditions": "Postemergence, 125 g ai/ha, 0 to 100 scale where 0 is no effect and 100 is complete control"}, "[13]": {"conditions": "Postemergence, 500 g ai/ha, 0 to 100 scale, 0 = no effect, 100 = complete control, approx. ten days"}, "[14]": {"conditions": "Preemergence, 125 g ai/ha, 0 to 100 scale, 0 = no effect, 100 = complete control"}, "[15]": {"conditions": "Preemergence, 500 g ai/ha, visual injury, 0 to 100 scale (0 no effect, 100 complete control), approx. ten days"}, "[16]": {"conditions": "62 g ai/ha, postemergence, 0 is no effect, 100 is complete control, 13 to 15 days"}, "[17]": {"conditions": "31 g ai/ha, 0 to 100 scale (0 no effect, 100 complete control)"}, "[18]": {"conditions": "125 g ai/ha, scale 0 to 100 (0 no effect, 100 complete control)"}, "[19]": {"conditions": "250 g ai/ha, scale 0 to 100 (0 no effect, 100 complete control), 13 to 15 days"}},
  "data": [
    {"compound": "CCCn1c(-c2cccc(F)c2)ncc(C(=O)C2=C(O)CCCC2=O)c1=O", "note": "[Compound 127]", "values": [
      {"measurement": "Plant response rating, Foxtail, Giant", "setting": "[1]; [12]", "value": 70},
      {"measurement": "Plant response rating, Foxtail, Giant", "setting": "[1]; [13]", "value": 80},
      {"measurement": "Plant response rating, Foxtail, Giant", "setting": "[1]; [14]", "value": 50},
      {"measurement": "Plant response rating, Foxtail, Giant", "setting": "[1]; [15]", "value": 90},
      {"measurement": "Plant response rating, Velvetleaf", "setting": "[2]; [12]", "value": 100},
      {"measurement": "Plant response rating, Velvetleaf", "setting": "[2]; [13]", "value": 100},
      {"measurement": "Plant response rating, Velvetleaf", "setting": "[2]; [14]", "value": 70},
      {"measurement": "Plant response rating, Velvetleaf", "setting": "[2]; [15]", "value": 100},
      {"measurement": "Plant response rating, Pigweed", "setting": "[3]; [12]", "value": 90},
      {"measurement": "Plant response rating, Pigweed", "setting": "[3]; [13]", "value": 100},
      {"measurement": "Plant response rating, Pigweed", "setting": "[3]; [14]", "value": 100},
      {"measurement": "Plant response rating, Pigweed", "setting": "[3]; [15]", "value": 100},
      {"measurement": "Plant response rating, Crabgrass, Large", "setting": "[4]; [12]", "value": 80},
      {"measurement": "Plant response rating, Crabgrass, Large", "setting": "[4]; [13]", "value": 90},
      {"measurement": "Plant response rating, Crabgrass, Large", "setting": "[4]; [14]", "value": 90},
      {"measurement": "Plant response rating, Crabgrass, Large", "setting": "[4]; [15]", "value": 100},
      {"measurement": "Plant response rating, Barnyardgrass", "setting": "[5]; [12]", "value": 80},
      {"measurement": "Plant response rating, Barnyardgrass", "setting": "[5]; [13]", "value": 90},
      {"measurement": "Plant response rating, Barnyardgrass", "setting": "[5]; [14]", "value": 40},
      {"measurement": "Plant response rating, Barnyardgrass", "setting": "[5]; [15]", "value": 100},
      {"measurement": "Plant response rating, Morningglory", "setting": "[6]; [12]", "value": 90},
      {"measurement": "Plant response rating, Morningglory", "setting": "[6]; [13]", "value": 100},
      {"measurement": "Plant response rating, Morningglory", "setting": "[6]; [14]", "value": 10},
      {"measurement": "Plant response rating, Morningglory", "setting": "[6]; [15]", "value": 80},
      {"measurement": "Plant response rating, Wheat", "setting": "[7]; [12]", "value": 0},
      {"measurement": "Plant response rating, Wheat", "setting": "[7]; [13]", "value": 0},
      {"measurement": "Plant response rating, Wheat", "setting": "[7]; [14]", "value": 0},
      {"measurement": "Plant response rating, Wheat", "setting": "[7]; [15]", "value": 0},
      {"measurement": "Plant response rating, Corn", "setting": "[8]; [12]", "value": 20},
      {"measurement": "Plant response rating, Corn", "setting": "[8]; [13]", "value": 20},
      {"measurement": "Plant response rating, Corn", "setting": "[8]; [14]", "value": 0},
      {"measurement": "Plant response rating, Corn", "setting": "[8]; [15]", "value": 0},
      {"measurement": "Bermudagrass plant response rating (0 to 100 scale)", "setting": "[9]; [16]", "value": 95},
      {"measurement": "Plant response rating, Bermudagrass", "setting": "[9]; [17]", "value": 95},
      {"measurement": "Plant response rating, Bermudagrass", "setting": "[9]; [18]", "value": 98},
      {"measurement": "Plant response rating, Bermudagrass", "setting": "[9]; [19]", "value": 98},
      {"measurement": "Wheat plant response rating (0 to 100 scale)", "setting": "[10]; [16]", "value": 10},
      {"measurement": "Plant response rating, Wheat", "setting": "[10]; [17]", "value": 5},
      {"measurement": "Plant response rating, Wheat", "setting": "[10]; [18]", "value": 25},
      {"measurement": "Plant response rating, Wheat", "setting": "[10]; [19]", "value": 40},
      {"measurement": "Cocklebur plant response rating (0 to 100 scale)", "setting": "[11]; [16]", "value": 95},
      {"measurement": "Plant response rating, Cocklebur", "setting": "[11]; [17]", "value": 75},
      {"measurement": "Plant response rating, Cocklebur", "setting": "[11]; [18]", "value": 95},
      {"measurement": "Plant response rating, Cocklebur", "setting": "[11]; [19]", "value": 100}
    ]}
  ]
}
